According to patent publication US9914731B2, “Pyrazolo[1,5-a]pyridine derivatives and methods of their use” (Ignyta, Inc., priority 2013, dated 2018):

Assays:
[1] = target: recombinant human baculovirus-expressed AXL (Homo sapiens (Human), UniProt P30530); assay: AXL kinase assay (HTRF KinEASE); assay type: biochemical; conditions: average of two or more determinations
[2] = target: recombinant human baculovirus-expressed cMET (Homo sapiens (Human), UniProt P08581); assay: c-MET kinase assay (HTRF KinEASE); assay type: biochemical; conditions: average of two or more determinations; read-out: c-MET IC50

Question: What does the source list for CC(C)n1cc(C(=O)Nc2ccc(Oc3cc(NC(=O)N(C)C)cn4nccc34)c(F)c2)c(=O)n(-c2ccc(F)cc2)c1=O [Example 147, 3-(4-Fluoro-phenyl)-1-isopropyl-2,4-dioxo-1,2,3,4-tetrahydro-pyrimidine-5-carboxylic acid{4-[6-(3,3-dimethyl-ureido)-pyrazolo[1,5-a]pyridin-4-yloxy]-3-fluoro-phenyl}-amide]?
Answer: IC50 [1]: < 10 nM; IC50 [2]: < 10 nM

Question: CCn1cc(C(=O)Nc2ccc(Oc3cc(NC(=O)OC)cn4nccc34)c(F)c2)c(=O)n(-c2ccc(F)cc2)c1=O [Example 148, [4-(4-{[1-Ethyl-3-(4-fluoro-phenyl)-2,4-dioxo-1,2,3,4-tetrahydro-pyrimidine-5-carbonyl]-amino}-2-fluoro-phenoxy)-pyrazolo[1,5-a]pyridin-6-yl]-carbamic acid methyl ester] was tested. Which IC50 [1] did it give?
Answer: Its IC50 is under 10 nM.

Question: And the IC50 [2]?
Answer: The IC50 was 10 to 100 nM.

Question: How did the IC50 [1] turn out when COC(=O)Nc1cc(Oc2ccc(NC(=O)c3cn(C(C)C)c(=O)n(-c4ccc(F)cc4)c3=O)cc2F)c2ccnn2c1 [Example 149, [4-(2-Fluoro-4-{[3-(4-fluoro-phenyl)-1-isopropyl-2,4-dioxo-1,2,3,4-tetrahydro-pyrimidine-5-carbonyl]-amino}-phenoxy)-pyrazolo[1,5-a]pyridin-6-yl]-carbamic acid methyl ester] was run?
Answer: The IC50 was under 10 nM.

Question: And the IC50 [2]?
Answer: The IC50 was 10 to 100 nM.
